From patent US12655156B2, “Oxadiazolopyrazines and oxadiazolopyridines useful as mitochondrial uncouplers” (Virginia Tech Intellectual Properties, Inc., priority 2018, dated 2026) come the findings set out here.

Each structure is given as a SMILES string.

This test concerns whole cells (NMuLi, C2C12, and L6 cells, isolated cardiomyocytes, human primary fibroblasts). Description: Oxygen consumption rate (OCR) in whole cells, Seahorse XF-24 Flux Analyzer. In kind it is cell-based. Particulars: increase in OCR; binned EC50 values. The procedure:
Biological activities of the compounds synthesized is determined by determining increase in oxygen consumption rate (OCR).
Oxygen consumption rate (OCR) in whole cells is measured in general accordance with the method of Kenwood B M et al. (Mol. Met. (2014) 3:114-123).
OCR is measured using a Seahorse XF-24 Flux Analyzer (Seahorse Biosciences, North Billerica, MA). NMuLi, C2C12, and L6 cells are seeded in a Seahorse 24-well tissue culture plate at a density of 3.5×10^4 cells/well, isolated cardiomyocytes at a density of 4×10^4 cells/well, and human primary fibroblasts at a density of 1.1×10^4 cells/well. The cells are then allowed to adhere for 24 h. Prior to the assay, the media is changed to unbuffered DMEM containing pyruvate and glutamine (Gibco #12800-017, pH=7.4 at 37° C.) and the cells are equilibrated for 30 mins at 37°° C. Compounds are injected during the assay and OCR is measured using 2 min measurement periods.
2-3 wells are used per condition and averaged over three plates (n=6-9). Statistical significance is determined by two-way ANOVA with Bonferroni's posttest.
Activities are reported as binned EC50 values: A=5 μM or less; B=>5 to 20 μM; C=over 20 μM; NA=not active.
Regarding `Oc1nc2nonc2nc1NC(c1ccccc1)c1ccccc1` [1-79, 6-(benzhydrylamino)-[1,2,5]oxadiazolo[3,4-b]pyrazin-5-ol], the EC50 (in general, the concentration needed to bring the measured effect to its halfway point) is more than 20 µM.

`Oc1nc2nonc2nc1Nc1ccc(-c2cccs2)cc1` [1-106, 6-((4-(thiophen-2-yl)phenyl)amino)-[1,2,5]oxadiazolo[3,4-b]pyrazin-5-ol] came in with an EC50 of 5 to 20 µM.

`Oc1nc2nonc2nc1Nc1ccc(C(F)(F)F)cc1` [1-7, 6-((4-(Trifluoromethyl)phenyl)amino)-[1,2,5]oxadiazolo[3,4-b]pyrazin-5-ol] yielded an EC50 of 5 to 20 µM.

Compound `Oc1nc2nonc2nc1Nc1ccccc1C(F)(F)F` [1-6, 6-((2-(Trifluoromethyl)phenyl)amino)-[1,2,5]oxadiazolo[3,4-b]pyrazin-5-ol] registered an EC50 of 5 to 20 µM.

Compound `Oc1nc2nonc2nc1Nc1cccc(-c2cc(F)cc(F)c2)c1` [1-119, 6-((3′,5′-difluoro-[1,1′-biphenyl]-3-yl)amino)-[1,2,5]oxadiazolo[3,4-b]pyrazin-5-ol] displayed an EC50 not above 5 µM.

With `Oc1nc2nonc2nc1Nc1cccc(C(F)(F)F)c1F` [1-37, 6-((2-Fluoro-3-(trifluoromethyl)phenyl)amino)-[1,2,5]oxadiazolo[3,4-b]pyrazin-5-ol], the EC50 was not above 5 µM.

As to `COc1ccccc1Nc1nc2nonc2nc1O` [1-94, 6-((2-methoxyphenyl)amino)-[1,2,5]oxadiazolo[3,4-b]pyrazin-5-ol], the EC50 is more than 20 µM.

Take `Oc1nc2nonc2nc1Nc1ccc2c(c1)OCO2` [1-87, 6-(benzo[d][1,3]dioxol-5-ylamino)-[1,2,5]oxadiazolo[3,4-b]pyrazin-5-ol]: the EC50 is more than 20 µM.

Consider `Oc1nc2nonc2nc1Nc1ccc(F)c(-c2ccc(C(F)(F)F)nc2)c1` [1-116, 6-((4-fluoro-3-(6-(trifluoromethyl)pyridin-3-yl)phenyl)amino)-[1,2,5]oxadiazolo[3,4-b]pyrazin-5-ol], for which the EC50 is 5 to 20 µM.

Compound `Oc1nc2nonc2nc1Nc1ccccc1Cl` [1-20, 6-((2-Chlorophenyl)amino)-[1,2,5]oxadiazolo[3,4-b]pyrazin-5-ol] displayed an EC50 of 5 to 20 µM.

Take `Oc1nc2nonc2nc1Nc1ccc(-c2cccc(C(F)(F)F)c2)cc1` [1-110, 6-((3′-(trifluoromethyl)-[1,1′-biphenyl]-4-yl)amino)-[1,2,5]oxadiazolo[3,4-b]pyrazin-5-ol]: the EC50 was in the range of 5 to 20 µM.

With `Oc1nc2nonc2nc1Nc1ccc(-c2ccc(F)c(C(F)F)c2)cc1` [1-109, 6-((3′-(difluoromethyl)-4′-fluoro-[1,1′-biphenyl]-4-yl)amino)-[1,2.5]oxadiazolo[3.4-b]pyrazin-5-ol], the EC50 is not above 5 µM.

In turn, `Oc1nc2nonc2nc1Nc1cccc(F)c1F` [1-14, 6-((2,3-Difluorophenyl)amino)-[1,2,5]oxadiazolo[3,4-b]pyrazin-5-ol] gave an EC50 of 5 to 20 µM.

Compound `CCCCCc1ccc(Nc2nc3nonc3nc2O)c(F)c1` [1-66, 6-((2-Fluoro-4-pentylphenyl)amino)-[1,2,5]oxadiazolo[3,4-b]pyrazin-5-ol] had an EC50 not above 5 µM.

`Oc1nc2nonc2nc1Nc1ccc2c(c1)OC(F)(F)O2` [1-93, 6-((2,2-difluorobenzo[d][1,3]dioxol-5-yl)amino)-[1,2,5]oxadiazolo[3,4-b]pyrazin-5-ol]: the EC50 lay in the range of 5 to 20 µM.

In turn, `Oc1nc2nonc2nc1Nc1ccc(OC(F)(F)C(F)F)cc1` [1-28, 6-((4-(1,1,2,2-Tetrafluoroethoxy)phenyl)amino)-[1,2,5]oxadiazolo[3,4-b]pyrazin-5-ol] registered an EC50 of 5 to 20 µM.

`CCc1cccc(Nc2nc3nonc3nc2O)c1` [1-46, 6-((3-Ethylphenyl)amino)-[1,2,5]oxadiazolo[3,4-b]pyrazin-5-ol] showed an EC50 of 5 to 20 µM.

In turn, `CCCCCc1ccc(Nc2nc3nonc3nc2O)cc1` [1-71, 6-((4-pentylphenyl)amino)-[1,2,5]oxadiazolo[3,4-b]pyrazin-5-ol] gave an EC50 of more than 20 µM.

Compound `COc1cc(-c2ccc(Nc3nc4nonc4nc3O)cc2)ccc1F` [1-128, 6-((4′-fluoro-3′-methoxy-[1,1′-biphenyl]-4-yl)amino)-[1,2,5]oxadiazolo[3,4-b]pyrazin-5-ol] yielded an EC50 of more than 20 µM.

Consider `CCCCCCc1ccc(Nc2nc3nonc3nc2O)c(F)c1` [1-67, 6-((2-Fluoro-4-hexylphenyl)amino)-[1,2,5]oxadiazolo[3,4-b]pyrazin-5-ol], for which the EC50 is not above 5 µM.

`Oc1nc2nonc2nc1Nc1ccc(-c2ccc3c(c2)OCO3)cc1` [1-122, 6-((4-(benzo[d][1,3]dioxol-5-yl)phenyl)amino)-[1,2,5]oxadiazolo[3,4-b]pyrazin-5-ol] showed an EC50 of more than 20 µM.

Take `Oc1nc2nonc2cc1Nc1cccc(F)c1F` [1-250, 6-((2,3-difluorophenyl)amino)-[1,2,5]oxadiazolo[3,4-b]pyridin-5-ol]: the EC50 is not above 5 µM.

`Oc1nc2nonc2nc1Nc1cccc(-c2ccc(C(F)(F)F)cc2)c1` [1-131, 6-((4′-(trifluoromethyl)-[1,1′-biphenyl]-3-yl)amino)-[1,2,5]oxadiazolo[3,4-b]pyrazin-5-ol] yielded an EC50 not above 5 µM.

On to `Oc1nc2nonc2nc1Nc1ccc(-c2ccc(C(F)(F)F)nc2)cc1` [1-107, 6-((4-(6-(trifluoromethyl)pyridin-3-yl)phenyl)amino)-[1,2,5]oxadiazolo[3,4-b]pyrazin-5-ol], for which the 50% effective concentration (EC50) is 5 to 20 µM.

`Oc1nc2nonc2nc1Nc1cccc(-c2ccc(OC(F)F)cc2)c1` [1-113, 6-((4′-(difluoromethoxy)-[1,1′-biphenyl]-3-yl)amino)-[1,2,5]oxadiazolo[3,4-b]pyrazin-5-ol] showed an EC50 not above 5 µM.

The compound `Cc1cccc(C)c1Nc1nc2nonc2nc1O` [1-56, 6-((2,6-Dimethylphenyl)amino)-[1,2,5]oxadiazolo[3,4-b]pyrazin-5-ol] displayed an EC50 not above 5 µM.

The compound `CC(=O)COc1nc2nonc2nc1Nc1ccc(-c2ccc(F)cc2)cc1` [1-190, 1-((6-((4′-fluoro-[1,1′-biphenyl]-4-yl)amino)-[1,2,5]oxadiazolo[3,4-b]pyrazin-5-yl)oxy)propan-2-one] had an EC50 not above 5 µM.

For `Cc1cc(Nc2nc3nonc3nc2O)ccc1OCC(F)(F)F` [1-89, 6-((3-Methyl-4-(2,2,2-trifluoroethoxy)phenyl)amino)-[1,2,5]oxadiazolo[3,4-b]pyrazin-5-ol], the EC50 is 5 to 20 µM.

`Oc1nc2nonc2nc1Nc1ccc(-c2cccc(OC(F)(F)F)c2)cc1` [1-111, 6-((3′-(trifluoromethoxy)-[1,1′-biphenyl]-4-yl)amino)-[1,2,5]oxadiazolo[3,4-b]pyrazin-5-ol] displayed an EC50 of 5 to 20 µM.

In the case of `Oc1nc2nonc2nc1NC12CC3CC(CC(C3)C1)C2` [1-81, 6-(((3S,5S,7S)-adamantan-1-yl)amino)-[1,2,5]oxadiazolo[3,4-b]pyrazin-5-ol], the EC50 was in the range of 5 to 20 µM.

As for `Oc1nc2nonc2nc1Nc1cccc(-c2ccc(F)cc2)c1` [1-134, 6-((4′-fluoro-[1,1′-biphenyl]-3-yl)amino)-[1,2,5]oxadiazolo[3,4-b]pyrazin-5-ol], the EC50 was not above 5 µM.

In turn, `Oc1nc2nonc2nc1Nc1ccc(I)cc1` [1-19, 6-((4-Iodophenyl)amino)-[1,2,5]oxadiazolo[3,4-b]pyrazin-5-ol] yielded a 50% effective concentration (EC50) of 5 to 20 µM.

In the case of `Oc1nc2nonc2nc1Nc1cccc(-c2ccc3c(c2)OCO3)c1` [1-120, 6-((3-(benzo[d][1,3]dioxol-5-yl)phenyl)amino)-[1,2,5]oxadiazolo[3,4-b]pyrazin-5-ol], the EC50 was not above 5 µM.

For `CCCCc1ccc(Nc2nc3nonc3nc2O)cc1` [1-54, 6-((4-Butylphenyl)amino)-[1,2,5]oxadiazolo[3,4-b]pyrazin-5-ol], the EC50 was not above 5 µM.

In the case of `CCCCCCc1ccc(Nc2nc3nonc3nc2O)cc1` [1-72, 6-((4-hexylphenyl)amino)-[1,2,5]oxadiazolo[3,4-b]pyrazin-5-ol], the EC50 is 5 to 20 µM.

In turn, `Oc1nc2nonc2nc1Nc1ccc(-c2ccc(C(F)(F)F)cc2)cc1` [1-130, 6-((4′-(trifluoromethyl)-[1,1′-biphenyl]-4-yl)amino)-[1,2,5]oxadiazolo[3,4-b]pyrazin-5-ol] returned an EC50 of 5 to 20 µM.

Regarding `Oc1nc2nonc2nc1Nc1ccc(OCCCC(F)(F)F)c(F)c1` [1-99, 6-((3-fluoro-4-(4,4,4-trifluorobutoxy)phenyl)amino)-[1,2,5]oxadiazolo[3,4-b]pyrazin-5-ol], the EC50 is not above 5 µM.

Compound `Oc1nc2nonc2nc1Nc1cccc(-c2ccc(Cl)cc2)c1` [1-133, 6-((4′-chloro-[1,1′-biphenyl]-3-yl)amino)-[1,2,5]oxadiazolo[3,4-b]pyrazin-5-ol] displayed an EC50 not above 5 µM.

For `Oc1nc2nonc2nc1Nc1ccc(OC(F)(F)F)cc1F` [1-36, 6-((2-Fluoro-4-(trifluoromethoxy)phenyl)amino)-[1,2,5]oxadiazolo[3,4-b]pyrazin-5-ol], the EC50 is not above 5 µM.

As to `Oc1nc2nonc2cc1Nc1ccc(OC(F)(F)F)c(F)c1` [1-230, 6-((3-fluoro-4-(trifluoromethoxy)phenyl)amino)-[1,2,5]oxadiazolo[3,4-b]pyridin-5-ol], the EC50 was more than 20 µM.

For the compound `N#Cc1cc(-c2ccc(Nc3nc4nonc4nc3O)cc2)cs1` [1-123, 4-(4-((6-hydroxy-[1,2,5]oxadiazolo[3,4-b]pyrazin-5-yl)amino)phenyl)thiophene-2-carbonitrile], the EC50 is not above 5 µM.

`Oc1nc2nonc2nc1Nc1cccc(F)c1` [1-4, 6-((3-Fluorophenyl)amino)-[1,2,5]oxadiazolo[3,4-b]pyrazin-5-ol] gave an EC50 of more than 20 µM.
